PMC10319115, “CL-705G: a novel chemical Kir6.2-specific KATP channel opener” (Frontiers in Pharmacology, 2023)

Tests used:
Kir6.2/SUR2A = system: T1, Kir6.2/SUR2A; assay: Tl+ flux (FluxOR II), initial rate, HEK-293; assay type: cell-based; conditions: opener; 10 min preincubation
T1 construct: gene KCNJ11; hetero-octamer

Kir3.1/Kir3.4 = target: T2, Kir3.1/Kir3.4 (Mus musculus, UniProt P48548+P63250); assay: two-electrode voltage clamp, Xenopus oocytes; assay type: cell-based; conditions: inhibition; high K+ (96 mM) pH 7.3
T2 construct: gene Kcnj3; heterotetramer expressed from cRNA in Xenopus laevis oocytes
T2 sequence (P63250 1-501): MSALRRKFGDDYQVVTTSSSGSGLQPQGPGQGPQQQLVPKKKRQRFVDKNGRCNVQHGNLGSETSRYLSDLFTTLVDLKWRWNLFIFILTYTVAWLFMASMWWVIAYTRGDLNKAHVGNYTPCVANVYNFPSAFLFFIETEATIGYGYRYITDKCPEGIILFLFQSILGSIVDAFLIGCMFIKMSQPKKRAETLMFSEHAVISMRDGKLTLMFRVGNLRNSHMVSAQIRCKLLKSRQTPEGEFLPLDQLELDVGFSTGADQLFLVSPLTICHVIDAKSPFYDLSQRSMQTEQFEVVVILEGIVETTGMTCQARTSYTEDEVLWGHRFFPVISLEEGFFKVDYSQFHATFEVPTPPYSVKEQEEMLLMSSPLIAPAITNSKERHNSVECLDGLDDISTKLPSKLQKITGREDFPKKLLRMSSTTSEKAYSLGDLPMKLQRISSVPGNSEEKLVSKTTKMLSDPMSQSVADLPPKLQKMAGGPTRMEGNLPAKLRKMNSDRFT
T2 sequence (P48548 1-419): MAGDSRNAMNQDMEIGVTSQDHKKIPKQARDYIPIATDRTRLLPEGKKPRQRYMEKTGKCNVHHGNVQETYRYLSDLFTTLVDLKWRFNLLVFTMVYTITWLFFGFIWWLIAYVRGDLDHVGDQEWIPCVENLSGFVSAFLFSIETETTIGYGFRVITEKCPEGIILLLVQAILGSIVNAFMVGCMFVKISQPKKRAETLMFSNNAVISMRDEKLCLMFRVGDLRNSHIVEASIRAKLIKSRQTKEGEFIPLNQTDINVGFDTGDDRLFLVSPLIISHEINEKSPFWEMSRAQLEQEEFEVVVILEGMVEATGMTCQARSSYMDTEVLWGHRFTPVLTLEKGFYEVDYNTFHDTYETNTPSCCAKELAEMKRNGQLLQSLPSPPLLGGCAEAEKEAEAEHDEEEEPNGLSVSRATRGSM

% reduction of current at 100 μM (Kir3.1/Kir3.4) [%] | SMILES | EC50 (Kir6.2/SUR2A) [µM]
 | CC(NC(=NC#N)Nc1ccncc1)C(C)(C)C (centres unmarked) [pinacidil] | 11
17 | O=C(c1cc(=O)[nH][nH]1)N1CCCC(CCc2ccccc2C(F)(F)F)C1 (centres unmarked) [CL-705G, 5-[(3-{2-[2-(trifluoromethyl)phenyl]ethyl}-1-piperidinyl)carbonyl]-1,2-dihydro-3H-pyrazol-3-one] | 
